Measured values as given in patent publication US12435060B2, “Acylamino bridged heterocyclic compound, and composition and application thereof” (BEIJING SCITECH-MQ PHARMACEUTICALS LIMITED, priority 2019, dated 2025).

Test system: HT29 cells
Assay: Inhibition of cell necrosis (CCK8 method), induced programmed necrosis of HT29 cells
Type: cell-based
Details: Homo sapiens, HT-29; rescue from necrosis induced by TNF-α 20 ng/mL, AT-406 1 μM, Z-VAD-FMK 20 μM; 16-20 hours; CCK-8, OD 450 nm
In short: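 Rescue from programmed necrosis was scored by CCK-8 absorbance at 450 nm after 16-20 h of TNF-α (20 ng/mL), AT-406 (1 μM) and Z-VAD-FMK (20 μM) at 37 °C, 5% CO2. HT29 cells had received compound 30 min earlier across nine 4-fold dilutions (top 25000 nM final). IC50 came from % inhibition relative to uninduced and induced-only wells.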

Row | SMILES | IC50 [nM]
1 | CC(C)(O)CCCOc1ccc(C(F)(F)F)c(-c2ccnc(NC(=O)c3nnc(Cc4ccccc4F)[nH]3)c2)c1 [Example 255, 5-(2-fluorobenzyl)-N-(4-(5-((4-hydroxy-4-methylpentyl)oxy)-2-(trifluoromethyl)phenyl)pyridin-2-yl)-4H-1,2,4-triazole-3-carboxamide] | ≤ 100
2 | Cc1cnc(OC(C)C)c(-c2ccnc(NC(=O)c3nnc(Cc4ccccc4)[nH]3)c2)c1 [Example 52, 5-benzyl-N-(2-isopropoxy-5-methyl-[3,4′-bipyridin]-2′-yl)-4H-1,2,4-triazole-3-carboxamide] | > 10000
3 | CCC(O)(CC)CCCOc1ccc(Cl)c(-c2cc(NC(=O)c3nnc(CC4CCCCC4)[nH]3)ncc2Cl)c1 [Example 418, N-(5-chloro-4-(2-chloro-5-((4-ethyl-4-hydroxyhexyl)oxy)phenyl)pyridin-2-yl)-5-(cyclohexylmethyl)-4H-1,2,4-triazole-3-carboxamide] | 100 to 1000
4 | Cc1ccc(OCC2CCOCC2)cc1-c1cc(NC(=O)c2nnc(Cc3ccccc3F)[nH]2)ncc1Cl [Example 249, N-(5-chloro-4-(2-methyl-5-((tetrahydro-2H-pyran-4-yl)methoxy)phenyl)pyridin-2-yl)-5-(2-fluorobenzyl)-4H-1,2,4-triazole-3-carboxamide] | 100 to 1000
5 | Cc1ccc(OCC2CCOCC2)cc1-c1cc(NC(=O)c2nnc(CC3CCCCC3)[nH]2)ncn1 [Example 444, 5-(cyclohexylmethyl)-N-(6-(2-methyl-5-((tetrahydro-2H-pyran-4-yl)methoxy)phenyl)pyrimidin-4-yl)-4H-1,2,4-triazole-3-carboxamide] | ≤ 100
6 | Cc1ccc(S(C)(=O)=O)cc1-c1ccnc(NC(=O)c2nnc(Cc3ccccc3)[nH]2)c1 [Example 37, 5-benzyl-N-(4-(2-methyl-5-(methylsulfonyl)phenyl)pyridin-2-yl)-4H-1,2,4-triazole-3-carboxamide] | 100 to 1000
7 | Cc1ccc(OCCCCC(C)(C)O)cc1-c1ccnc(NC(=O)c2nnc(Cc3ccccc3)[nH]2)c1 [Example 167, 5-benzyl-N-(4-(5-((5-hydroxyl-5-methylhexyl)oxy)-2-methylphenyl)pyridin-2-yl)-4H-1,2,4-triazole-3-carboxamide] | ≤ 100
8 | Cc1cc(F)cc(Cc2nnc(C(=O)Nc3cc(-c4cc(OCCCC(C)(C)O)ccc4Cl)ccn3)[nH]2)c1 [Example 344, N-(4-(2-chloro-5-((4-hydroxy-4-methylpentyl)oxy)phenyl)pyridin-2-yl)-5-(3-fluoro-5-methylbenzyl)-4H-1,2,4-triazole-3-carboxamide] | 100 to 1000
9 | Cc1cnccc1-c1ccnc(NC(=O)c2nnc(Cc3ccccc3)[nH]2)c1 [Example 24, 5-benzyl-N-(3′-methyl-[4,4′-bipyridin]-2-yl)-4H-1,2,4-triazole-3-carboxamide] | 100 to 1000
10 | CCC(O)(CC)CCCOc1ccc(Cl)c(-c2ccnc(NC(=O)c3nnc(CC4CCCCC4)[nH]3)c2)c1 [Example 362, N-(4-(2-chloro-5-((4-ethyl-4-hydroxyhexyl)oxy)phenyl)pyridin-2-yl)-5-(cyclohexylmethyl)-4H-1,2,4-triazole-3-carboxamide] | ≤ 100
11 | CC(C)(O)CCCOc1ccc(Cl)c(-c2ccnc(NC(=O)c3nnc([C@H](O)c4ccccc4)[nH]3)c2)c1 [Example 477, (R)-N-(4-(2-chloro-5-((4-hydroxy-4-methylpentyl)oxy)phenyl)pyridin-2-yl)-5-(hydroxyl(phenyl)methyl)-4H-1,2,4-triazole-3-carboxamide] | 1000 to 10000
12 | O=C(Nc1cc(-c2cc(OCCCCO)ccc2C(F)(F)F)ccn1)c1nnc(CC2CCCC2)[nH]1 [Example 274, 5-(cyclopentylmethyl)-N-(4-(5-(4-hydroxybutoxy)-2-(trifluoromethyl)phenyl)pyridin-2-yl)-4H-1,2,4-triazole-3-carboxamide] | ≤ 100
13 | O=C(Nc1cc(-c2cc(OCCC3CCOCC3)ccc2Cl)ncn1)c1nnc(CC2CCCC2)[nH]1 [Example 472, N-(6-(2-chloro-5-(2-(tetrahydro-2H-pyran-4-yl)ethoxy)phenyl)pyrimidin-4-yl)-5-(cyclopentylmethyl)-4H-1,2,4-triazole-3-carboxamide] | ≤ 100
14 | CC(C)OCCOc1ccc(Cl)c(-c2ccnc(NC(=O)c3nnc(Cc4ccccc4)[nH]3)c2)c1 [Example 387, 5-benzyl-N-(4-(2-chloro-5-(2-isopropoxyethoxy)phenyl)pyridin-2-yl)-4H-1,2,4-triazole-3-carboxamide] | ≤ 100
15 | O=C(Nc1cc(-c2cccc3c2CCCO3)ccn1)c1nnc(Cc2ccccc2)[nH]1 [Example 40, 5-benzyl-N-(4-(chroman-5-yl)pyridin-2-yl)-4H-1,2,4-triazole-3-carboxamide] | 1000 to 10000
16 | Cc1ccc(OCCCC(C)(C)O)cc1-c1ccnc(NC(=O)c2nnc(Cc3cc(F)cc(F)c3F)[nH]2)c1 [Example 215, 5-(2,3,5-trifluorobenzyl)-N-(4-(5-((4-hydroxy-4-methylpentyl)oxy)-2-methylphenyl)pyridin-2-yl)-4H-1,2,4-triazole-3-carboxamide] | ≤ 100

Row | SMILES | IC50 [nM]
17 | Cc1ccc(OCCCC(C)(C)O)cc1-c1cc(NC(=O)c2nnc(CC3CCCC3)[nH]2)ncn1 [Example 439, 5-(cyclopentylmethyl)-N-(6-(5-((4-hydroxy-4-methylpentyl)oxy)-2-methylphenyl)pyrimidin-4-yl)-4H-1,2,4-triazole-3-carboxamide] | ≤ 100
18 | O=C(Nc1cc(-c2cc(OCCC3CCOCC3)ccc2Cl)ncn1)c1nnc(CC2CCCCC2)[nH]1 [Example 473, N-(6-(2-chloro-5-(2-(tetrahydro-2H-pyran-4-yl)ethoxy)phenyl)pyrimidin-4-yl)-5-(cyclohexylmethyl)-4H-1,2,4-triazole-3-carboxamide] | ≤ 100
19 | CC(C)(O)CCCCOc1ccc(Cl)c(-c2cc(NC(=O)c3nnc(Cc4ccccc4F)[nH]3)ncc2F)c1 [Example 419, N-(4-(2-chloro-5-((5-hydroxyl-5-methylhexyl)oxy)phenyl)-5-fluoropyridin-2-yl)-5-(2-fluorobenzyl)-4H-1,2,4-triazole-3-carboxamide] | ≤ 100
20 | CCOc1cccc(C)c1-c1ccnc(NC(=O)c2nnc(Cc3ccccc3)[nH]2)c1 [Example 93, 5-benzyl-N-(4-(2-ethoxy-6-methylphenyl)pyridin-2-yl)-4H-1,2,4-triazole-3-carboxamide] | 1000 to 10000
21 | CSCCCCOc1ccc(C)c(-c2ccnc(NC(=O)c3nnc(Cc4ccccc4)[nH]3)c2)c1 [Example 150, 5-benzyl-N-(4-(2-methyl-5-(4-(methylthio)butoxy)phenyl)pyridin-2-yl)-4H-1,2,4-triazole-3-carboxamide] | ≤ 100
22 | Cc1ccc(OCCCO)cc1-c1ccnc(NC(=O)c2nnc(Cc3ccccc3)[nH]2)c1 [Example 140, 5-benzyl-N-(4-(5-(3-hydroxylpropoxy)-2-methylphenyl)pyridin-2-yl)-4H-1,2,4-triazole-3-carboxamide] | ≤ 100
23 | CC(C)(O)CCCCOc1ccc(Cl)c(-c2ccnc(NC(=O)c3nnc(Cc4ccccc4)[nH]3)c2)c1 [Example 367, 5-benzyl-N-(4-(2-chloro-5-((5-hydroxyl-5-methylhexyl)oxy)phenyl)pyridin-2-yl)-4H-1,2,4-triazole-3-carboxamide] | ≤ 100
24 | Cc1ccc(OCCCC(C)(C)O)cc1-c1ccnc(NC(=O)c2nnc(CCC3CCCC3)[nH]2)c1 [Example 176, 5-(2-cyclopentylethyl)-N-(4-(5-((4-hydroxy-4-methylpentyl)oxy)-2-methylphenyl)pyridin-2-yl)-4H-1,2,4-triazole-3-carboxamide] | ≤ 100
25 | Cc1ccc(OCCCC(C)(C)O)cc1-c1ccnc(NC(=O)c2nnc(CC3CCCC3)[nH]2)c1 [Example 173, 5-(cyclopentylmethyl)-N-(4-(5-((4-hydroxy-4-methylpentyl)oxy)-2-methylphenyl)pyridin-2-yl)-4H-1,2,4-triazole-3-carboxamide] | ≤ 100
26 | Cc1ccc(OCCCC2(O)CCCCC2)cc1-c1ccnc(NC(=O)c2nnc(Cc3ccccc3)[nH]2)c1 [Example 164, 5-benzyl-N-(4-(5-(3-(1-hydroxycyclohexyl)propoxy)-2-methylphenyl)pyridin-2-yl)-4H-1,2,4-triazole-3-carboxamide] | ≤ 100
27 | Cc1ccc(OCC#N)cc1-c1ccnc(NC(=O)c2nnc(Cc3ccccc3)[nH]2)c1 [Example 120, 5-benzyl-N-(4-(5-(cyanomethoxy)-2-methylphenyl)pyridin-2-yl)-4H-1,2,4-triazole-3-carboxamide] | 100 to 1000
28 | O=C(Nc1cc(-c2cc(OCCC3CCOCC3)ccc2Cl)ccn1)c1nnc(Cc2ccccc2)[nH]1 [Example 403, 5-benzyl-N-(4-(2-chloro-5-(2-(tetrahydro-2H-pyran-4-yl)ethoxy)phenyl)pyridin-2-yl)-4H-1,2,4-triazole-3-carboxamide] | ≤ 100
29 | Cc1cnc(NC(=O)c2nnc(CC3CCCCC3)[nH]2)cc1-c1cc(OCC2CCOCC2)ccc1Cl [Example 427, N-(4-(2-chloro-5-((tetrahydro-2H-pyran-4-yl)methoxy)phenyl)-5-methylpyridin-2-yl)-5-(cyclohexylmethyl)-4H-1,2,4-triazole-3-carboxamide] | 100 to 1000
30 | Cc1ccc(OC2CCOCC2)cc1-c1ccnc(NC(=O)c2nnc(Cc3ccccc3)[nH]2)c1 [Example 65, 5-benzyl-N-(4-(2-methyl-5-((tetrahydro-2H-pyran-4-yl)oxy)phenyl)pyridin-2-yl)-4H-1,2,4-triazole-3-carboxamide] | ≤ 100
31 | O=C(Nc1cc(-c2cccc3c2OCCO3)ccn1)c1nnc(Cc2ccccc2)[nH]1 [Example 42, 5-benzyl-N-(4-(2,3-dihydrobenzo[b][1,4]dioxin-5-yl)pyridin-2-yl)-4H-1,2,4-triazole-3-carboxamide] | 1000 to 10000
32 | COCCOc1nc(-c2ccnc(NC(=O)c3nnc(Cc4ccccc4)[nH]3)c2)ccc1C [Example 54, 5-benzyl-N-(6-(2-methoxyethoxy)-5-methyl-[2,4′-bipyridin]-2′-yl)-4H-1,2,4-triazole-3-carboxamide] | > 10000
